The values that follow come from PubChem BioAssay (NCI).

Some test systems named below: NCI-H23 lung; KM12 colon; UO-31 renal; SF-539 CNS; M14 melanoma; NCI-H460 lung; OVCAR-8 ovarian; 786-0 renal; HT29 colon; CAKI-1 renal.
What all share (assay): NCI-60 cell line screen, 48 h

Structures are written as SMILES.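 In this assay, cells in 96-well plates receive the compound at five concentrations for 48 hours. Endpoints are linearly interpolated between the surrounding concentrations. GI50 is the concentration that inhibits growth by half. TGI: concentration producing complete growth inhibition.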

`O=Cc1cn(S(=O)(=O)c2ccccc2)c2ccccc12`: the TGI in the experiment with NCI-H23 lung was 85 µM; in the experiment with KM12 colon, above 100 µM; with UO-31 renal, 68 µM; with SF-539 CNS, above 100 µM; in the experiment on M14 melanoma it was above 100 µM; in the experiment with NCI-H460 lung it was above 100 µM. In addition, the TGI with OVCAR-8 ovarian, in the experiment on 786-0 renal and in the experiment with HT29 colon was above 100 µM each time.

Take `C[C@H]1CCC2C(CN3CCCCC3)C(=O)OC2[C@]2(C)C(=O)CC(N3CCCCC3)C12O` (some centres undefined): the TGI amounted to 25.9 µM with NCI-H23 lung; 12.3 µM in the experiment with KM12 colon; 27.9 µM in the experiment on UO-31 renal; 7.93 µM with SF-539 CNS; 32.6 µM in the experiment on NCI-H460 lung; 22.2 µM in the experiment on 786-0 renal. Moreover, the TGI was 16.4 µM in the experiment with HT29 colon and 97.9 µM in the experiment on CAKI-1 renal.

As for `CCOC(=O)CP(=S)(S)c1ccccc1` (centres undefined), the TGI with NCI-H23 lung, in the experiment on KM12 colon, in the experiment on UO-31 renal, in the experiment with SF-539 CNS, in the experiment on NCI-H460 lung and in the experiment with OVCAR-8 ovarian was above 100 µM throughout. Moreover, the TGI in the experiment on 786-0 renal, in the experiment on HT29 colon and in the experiment on CAKI-1 renal was above 100 µM each time.

For `Cn1c2c(c3ccccc31)CCN(CCCN1CCN(c3ccccc3)CC1)C2=O`, the TGI in the experiment on NCI-H23 lung stood at 46.8 µM; with UO-31 renal it was 30.3 µM; with SF-539 CNS, 31.7 µM; with M14 melanoma it was 37 µM; in the experiment on OVCAR-8 ovarian, 59.6 µM; in the experiment on 786-0 renal, 39.1 µM. For the same compound, the results for the TGI in the experiment with HT29 colon and in the experiment with CAKI-1 renal were 26.7 µM and 30.8 µM, respectively.

On to `C1=CC(=NN=P(c2ccccc2)(c2ccccc2)c2ccccc2)C=C1`, for which the TGI with NCI-H23 lung, in the experiment with KM12 colon, in the experiment on UO-31 renal, in the experiment on M14 melanoma, with NCI-H460 lung and in the experiment with OVCAR-8 ovarian was above 100 µM each time. The TGI with 786-0 renal, in the experiment with HT29 colon and with CAKI-1 renal was above 100 µM each time.

Regarding `COC(=O)C1=Cc2cn(S(=O)(=O)c3ccc(C)cc3)c3cccc(c23)C(C=C(C)C)N1C(C)=O` (centres undefined), the TGI in the experiment with NCI-H23 lung, in the experiment on KM12 colon, in the experiment on UO-31 renal, with SF-539 CNS, in the experiment with M14 melanoma and in the experiment on OVCAR-8 ovarian was above 100 µM throughout. The TGI with 786-0 renal is above 100 µM; in the experiment on HT29 colon, above 100 µM; in the experiment on CAKI-1 renal, 79.6 µM.

Take `C/C(CC(=O)Nc1ccc([N+](=O)[O-])cc1)=N\Nc1ccc([N+](=O)[O-])cc1[N+](=O)[O-]`: the TGI in the experiment with NCI-H23 lung, with KM12 colon, in the experiment with UO-31 renal, in the experiment with SF-539 CNS, with M14 melanoma and with NCI-H460 lung was above 100 µM each time. Moreover, the TGI with OVCAR-8 ovarian, in the experiment with 786-0 renal and in the experiment on HT29 colon was above 100 µM throughout.

As to `COc1ccc2c(c1)CC1N(C)CCC13CCCCC23` (centres undefined), the TGI in the experiment on NCI-H23 lung, in the experiment on KM12 colon, in the experiment on UO-31 renal, in the experiment on M14 melanoma, in the experiment on NCI-H460 lung and with OVCAR-8 ovarian was above 100 µM in each case. Besides, the TGI in the experiment on 786-0 renal, in the experiment with HT29 colon and with CAKI-1 renal was above 100 µM each time.

Turning to `COc1cc(/C=C2\CC3C4CCC5=CC(=O)CC[C@]5(C)C4CC[C@]3(C)C2=O)ccc1OCCN1CCCCC1` (some centres undefined), the GI50 in the experiment with NCI-H23 lung was 5.33 µM; in the experiment with KM12 colon, 1.69 µM; with UO-31 renal, 7.87 µM; in the experiment with M14 melanoma, 1.87 µM; in the experiment with NCI-H460 lung, 3.43 µM; in the experiment with OVCAR-8 ovarian, 15.9 µM. Further, the GI50 in the experiment on 786-0 renal is 1.92 µM; with HT29 colon, 3.37 µM; with CAKI-1 renal, 2.29 µM. Further, the TGI is 25.7 µM in the experiment on NCI-H23 lung; 3.52 µM in the experiment on KM12 colon; above 100 µM in the experiment on UO-31 renal; 3.46 µM in the experiment with M14 melanoma; 14.1 µM in the experiment on NCI-H460 lung; 62.5 µM in the experiment with OVCAR-8 ovarian. The TGI in the experiment on 786-0 renal worked out at 4.21 µM; in the experiment with HT29 colon it was 64.8 µM; in the experiment with CAKI-1 renal it was 5.89 µM.

Consider `Cc1nc2cc(Nc3nc(Nc4ccc(F)cc4)nc(N4CCCC4)n3)ccc2n1Cc1ccccc1`, for which the GI50 in the experiment on NCI-H23 lung was 2.2 µM; in the experiment with KM12 colon it was 1.86 µM; in the experiment with UO-31 renal, 1.51 µM; in the experiment on SF-539 CNS it was 1.79 µM; with M14 melanoma, 2.06 µM; in the experiment on NCI-H460 lung, 1.82 µM. Moreover, the GI50 is 2.15 µM in the experiment on OVCAR-8 ovarian, 1.85 µM with 786-0 renal and 1.93 µM in the experiment with HT29 colon. In addition, the TGI with NCI-H23 lung came out at 5.31 µM; in the experiment on KM12 colon, 3.51 µM; in the experiment with UO-31 renal it was 2.92 µM; in the experiment with SF-539 CNS, 3.32 µM; with M14 melanoma, 4.29 µM; in the experiment with NCI-H460 lung it was 3.44 µM. Further, the TGI was 4.79 µM in the experiment on OVCAR-8 ovarian, 3.46 µM in the experiment with 786-0 renal and 3.89 µM with HT29 colon.

For `COc1cc2oc(-c3ccc(O)cc3)cc(=O)c2c(OC)c1O`, the TGI with NCI-H23 lung, with UO-31 renal, in the experiment with SF-539 CNS, with M14 melanoma, in the experiment on NCI-H460 lung and with OVCAR-8 ovarian was above 100 µM in each case. The TGI with 786-0 renal, with HT29 colon and in the experiment on CAKI-1 renal was above 100 µM in each case.

Consider `C1C[S][Ge]2([S]CCS1)[S]CCSCC[S]2`, for which the GI50 in the experiment with NCI-H23 lung, in the experiment on UO-31 renal, with SF-539 CNS, in the experiment with M14 melanoma, with 786-0 renal and in the experiment on CAKI-1 renal was above 100 µM in each case. Besides, the TGI in the experiment with NCI-H23 lung, with UO-31 renal, with SF-539 CNS, in the experiment on M14 melanoma, in the experiment with 786-0 renal and with CAKI-1 renal was above 100 µM in each case.

In the case of `Cc1cc2c(C)nn(Cc3ccccc3Cl)c2c(C#N)c1C`, the TGI in the experiment with NCI-H23 lung, in the experiment on UO-31 renal, in the experiment with SF-539 CNS, with NCI-H460 lung, in the experiment on OVCAR-8 ovarian and in the experiment on 786-0 renal was above 100 µM in each case. The compound also came in with a TGI in the experiment on HT29 colon above 100 µM.
